Experimental data from PMC3548330 (Bioconjugate chemistry, 2012).
In brackets after ≈: the same amount, converted by molar mass. Where two headings read alike, the source gives them in different places.

Assays:
Ag85s = conditions: screening of the NIH Clinical Collection; cited from earlier work
Mycobacterium aurum = conditions: surrogate for Mycobacterium tuberculosis; cited from earlier work
Ag85C = Ag85C (Mycobacterium tuberculosis, UniProt P9WQN9); test: 4-methylumbelliferyl butyrate; format: biochemical
Chain of Ag85C (P9WQN9 46-340): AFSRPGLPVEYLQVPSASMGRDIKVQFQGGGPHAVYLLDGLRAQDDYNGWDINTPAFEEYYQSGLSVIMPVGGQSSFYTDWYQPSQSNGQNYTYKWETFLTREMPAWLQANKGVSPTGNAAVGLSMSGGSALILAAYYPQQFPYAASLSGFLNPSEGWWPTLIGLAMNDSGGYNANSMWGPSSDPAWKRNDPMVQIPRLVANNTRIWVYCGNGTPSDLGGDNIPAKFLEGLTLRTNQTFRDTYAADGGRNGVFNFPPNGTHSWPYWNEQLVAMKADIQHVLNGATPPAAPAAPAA

M. tuberculosis = conditions: cited from earlier work
[1] = test system: M. tuberculosis inside macrophages; conditions: 100 µM concentration; cited from earlier work
synthesis of TDM = conditions: cited from earlier work
M. smegmatis = conditions: cited from earlier work
[2] = 600 nM Ag85C, 10 mM trehalose, 100 µM 4-MUB, 37 °C, inhibitor 20-320 µM

## O=c1c2ccccc2[se]n1-c1ccccc1 [ebselen]
Ag85s
  inhibition of Ag85s: nM inhibitor

## [N-]=[N+]=NC[C@H]1O[C@H](O[C@H]2O[C@H](CO)[C@@H](O)[C@H](O)[C@H]2O)[C@H](O)[C@@H](O)[C@@H]1O [6-azido-6-deoxytrehalose]
Mycobacterium aurum
  growth inhibition of Mycobacterium aurum: completely inhibit the growth

## CCOC(=O)c1c(NC(=O)C(CC)SC[C@H]2O[C@H](OC)[C@@H](O)[C@@H]2O)sc2c1CCCC2 (stereo partly drawn) [Compound 13c, Ethyl 2-(methyl 5-thio-α-D-arabinofuranoside-5-S-yl)butamido-4,5,6,7-tetrahydrobenzo[b]thiophene-3-carboxylate]
Ag85C; [2]
  Ki: 71 µM

## CCCC1CCc2c(sc(N)c2C#N)C1 (centres unmarked) [Compound I3-AG85, 2-amino-6-propyl-4,5,6,7-tetrahydro-1-benzothiophene-3-carbonitrile]
M. tuberculosis; 7 MDR and 3 XDR M. tuberculosis strains
  concentration inhibiting growth of MDR and XDR strains: ≤ 200 µM
M. tuberculosis; M. tuberculosis
  MIC: 100 mg/L (≈ 454 µM)
[1]
  survival of M. tuberculosis inside macrophages: reduced survival
Synthesis of TDM
  inhibition of the synthesis of TDM: inhibit the synthesis of TDM

## COC1O[C@H](CSCCn2c(=O)[nH]c3sc4c(c3c2=O)CCCC4)[C@@H](O)[C@@H]1O (stereo partly drawn) [Compound 14, Methyl 5-S-[2-(2,4-dioxo-1,4,5,6,7,8-hexahydro[1]benzothieno[2,3-d]-pyrimidin-3(2H)-yl)ethyl]-5-thioarabinofuranoside]
Ag85C
  Ki: 47.1 µM

## CCOC(=O)c1c(NC(=O)CSCC2OC(OC)C(O)C2O)sc2c1CCCC2 [Compound 13a, Ethyl 2-(methyl 5-thio-α-D-arabinofuranoside-5-S-yl)acetamido-4,5,6,7-tetrahydrobenzo[b]thiophene-3-carboxylate]
Ag85C; [2]
  Ki: 18.2 µM

## N#Cc1c(N)sc2c1CCCC2 [Compound 1b, 2-Amino-4,5,6,7-tetrahydrobenzo[b]thiophene-3-carbonitrile]
M. smegmatis
  MIC: 50 to 100 mg/L

## CO[C@H]1O[C@H](CSCC(=O)Nc2sc3c(c2C#N)CCCC3)[C@@H](O)[C@@H]1O [Compound 13b, N-(3-cyano-4,5,6,7-tetrahydrobenzo[b]thiophen-2-yl)-2-(methyl 5-thio-α-D-arabinofuranoside-5-S-yl)acetamide]
Ag85C; [2]
  Ki: 34.8 µM
